Our source for the EC50 values is patent US8030354B2, “Substituted biphenyl GPR40 modulators” (Amgen Inc., priority 2007, dated 2011).

SMILES strings stand for the structures.

The term EC50 denotes the concentration needed to bring the measured effect to its halfway point. Lower therefore signals a more potent agent.

Sequence of GPR40 (O14842 whole entry): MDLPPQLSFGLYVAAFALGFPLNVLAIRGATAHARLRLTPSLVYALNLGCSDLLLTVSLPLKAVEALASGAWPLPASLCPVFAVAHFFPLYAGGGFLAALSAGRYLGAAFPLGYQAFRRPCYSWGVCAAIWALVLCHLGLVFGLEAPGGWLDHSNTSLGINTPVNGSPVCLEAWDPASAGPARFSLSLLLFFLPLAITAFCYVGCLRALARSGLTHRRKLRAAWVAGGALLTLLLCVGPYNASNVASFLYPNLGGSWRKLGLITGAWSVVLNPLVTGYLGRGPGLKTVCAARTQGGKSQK

The target of this assay is GPR40 (Homo sapiens, UniProt O14842). Nature of the assay: Cell-based aequorin assay (CHO cells stably expressing GPR40 and aequorin). Also noted: expressed in transfected cells; host or cells: CHO cells stably transfected with GPR40 and aequorin. Conditions: activation of human GPR40, CHO cells, 0.01% HSA. In a few lines:
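CHO cells stably co-expressing GPR40 and aequorin, loaded with coelenterazine (1 ug/mL, 2 h, room temperature) in H/HBSS with 20 mM Hepes and 0.01% fatty acid-free HSA. Serially diluted compounds added; luminescence recorded over 20 s. EC50 from dose-response of maximum relative light units.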
In turn, `CCC(CC(=O)O)c1cc(OCc2ccc(-c3cc(OC)ccc3F)c(C(C)(C)C)c2)ccc1F` (single isomer, unassigned) [Example 76.2, (3R)-3-(5-(((2-(1,1-Dimethylethyl)-2′-fluoro-5′-(methyloxy)-1,1′-biphenyl-4-yl)methyl)oxy)-2-fluorophenyl)pentanoic acid or (3S)-3-(5-(((2-(1,1-dimethylethyl)-2′-fluoro-5′-(methyloxy)-1,1′-biphenyl-4-yl)methyl)oxy)-2-fluorophenyl)pentanoic acid] yielded a concentration for a half-maximal effect (EC50) of 1000 to 10000 nM.
Under `CC[C@H](CC(=O)O)c1cccc(OCc2ccc(-c3cc(OC)ncc3F)c(C3(COC)CCCC3)c2)c1F` (single isomer, unassigned) [Example 77.12, (3R)-3-(3-(4-(5-Fluoro-2-methoxypyridin-4-yl)-3-(1-(methoxymethyl)cyclopentyl)benzyloxy)-2-fluorophenyl)pentanoic acid or (3S)-3-(3-(4-(5-fluoro-2-methoxypyridin-4-yl)-3-(1-(methoxymethyl)cyclopentyl)benzyloxy)-2-fluorophenyl)pentanoic acid] stands 1000 to 10000 nM.
Under `CCC(CC(=O)O)c1cccc(OCc2ccc(-c3cc(OC)ccc3F)c(C3CCCC3(C)C)c2)c1` (single isomer, unassigned) [Example 78.3] stands 100 to 1000 nM.
Under `CC[C@H](CC(=O)O)c1cccc(OCc2ccc(-c3cccc(OC)c3)c([C@@H]3CCCC3(C)C)c2)c1` (single isomer, unassigned) [Example 78.5] stands 100 to 1000 nM; under `CCOCc1cc(COc2cccc(C(CC)CC(=O)O)c2)ccc1-c1cc(OC)ccc1F` (single isomer, unassigned) [Example 78.12, (3R)-3-(3-(((2-((Ethyloxy)methyl)-2′-fluoro-5′-(methyloxy)-1,1′-biphenyl-4-yl)methyl)oxy)phenyl)pentanoic acid or (3S)-3-(3-(((2-((ethyloxy)methyl)-2′-fluoro-5′-(methyloxy)-1,1′-biphenyl-4-yl)methyl)oxy)phenyl)pentanoic acid], 1000 to 10000 nM.
With `C=CC(C)(C)C(OC)c1cc(COc2cccc(C(CC)CC(=O)O)c2)ccc1-c1cc(OC)ccc1F` (single isomer, unassigned) [Example 78.13], the EC50 lay within 1000 to 10000 nM.
Under `COc1cccc(-c2ccc(COc3cccc(C(CC(=O)O)C4CCC4)c3)cc2C2CCCC2(C)C)c1` (single isomer, unassigned) [Example 79.5] stands 100 to 1000 nM; under `CCCC(CC(=O)O)c1cccc(OCc2ccc(-c3cccc(OC)c3)c(C3CCCCCC3)c2)c1` (single isomer, unassigned) [Example 80.1, (3R)-3-(3-(((2-Cycloheptyl-3′-(methyloxy)-1,1′-biphenyl-4-yl)methyl)oxy)phenyl)hexanoic acid or (3S)-3-(3-(((2-cycloheptyl-3′-(methyloxy)-1,1′-biphenyl-4-yl)methyl)oxy)phenyl)hexanoic acid], 100 to 1000 nM.
As to `CCCC(CC(=O)O)c1cccc(OCc2ccc(-c3cc(OC)ccc3F)c(C3CCCC3(C)C)c2)c1` (single isomer, unassigned) [Example 80.3], the EC50 lay in the range of 100 to 1000 nM.
As for `CCCC(CC(=O)O)c1cccc(OCc2ccc(-c3cccc(OC)c3)c(C3CCCC3(C)C)c2)c1` (single isomer, unassigned) [Example 80.5], the figure is 100 to 1000 nM; as for `CC1(C)CCC[C@H]1c1cc(COc2cccc([C@H](CC(=O)O)C3CC3)c2F)ccc1-c1cc(C(F)F)ccc1F` (single isomer, unassigned) [Example 83.13], 1000 to 10000 nM.
As for `COc1ccc(F)c(-c2ccc(COc3cccc(C(CC(=O)O)C4CC4)c3F)cc2C2CCCC2(C)C)c1` (single isomer, unassigned) [Example 83.17], the figure is 100 to 1000 nM; as for `COc1ccc(F)c(-c2ccc(COc3cccc([C@@H](CC(=O)O)C4CC4)c3F)cc2[C@H](O)C2(C)CC2)c1` (single isomer, unassigned) [Example 83.18], 1000 to 10000 nM.
Under `COc1ccc(F)c(-c2ccc(COc3cccc([C@H](CC(=O)O)C4CC4)c3F)cc2[C@H](O)C2(C)CC2)c1` (single isomer, unassigned) [Example 83.19] stands 1000 to 10000 nM; under `CC1(C)CCC[C@@H]1c1cc(COc2cccc([C@@H](CC(=O)O)C3CC3)c2F)ccc1-c1ccccc1F` (single isomer, unassigned) [Example 83.23], 100 to 1000 nM; under `COCC1(c2cc(COc3cccc(C(CC(=O)O)C4CC4)c3F)ccc2-c2cc(OC)ncc2F)CCCC1` (single isomer, unassigned) [Example 83.30, (3S)-3-(3-(4-(5-Fluoro-2-methoxypyridin-4-yl)-3-(1-(methoxymethyl)cyclopentyl)benzyloxy)-2-fluorophenyl)-3-cyclopropylpropanoic acid or (3R)-3-(3-(4-(5-fluoro-2-methoxypyridin-4-yl)-3-(1-(methoxymethyl)cyclopentyl)benzyloxy)-2-fluorophenyl)-3-cyclopropylpropanoic acid], 1000 to 10000 nM.
Take `COc1ccc(F)c(-c2ccc(COc3cccc([C@@H](CC(=O)O)C4CC4)c3F)cc2[C@H](OC)C2(C)CC2)c1` (single isomer, unassigned) [Example 83.31]: the half-maximal effective concentration (EC50) lay in the range of 1000 to 10000 nM.
Under `COc1cc(-c2ccc(COc3cccc([C@@H](CC(=O)O)C4CC4)c3F)cc2[C@H](OC)C(C)(C)C)c(F)cn1` (single isomer, unassigned) [Example 83.32] stands 1000 to 10000 nM.
As for `COc1ccc(F)c(-c2ccc(COc3cccc(C(CC(=O)O)C4CC4)c3F)cc2C(OC)C(C)(C)OC)c1` (single isomer, unassigned) [Example 83.33], the figure is 1000 to 10000 nM.
`CCC(CC(=O)O)c1ccc(F)c(OCc2ccc(-c3cc(OC)ccc3F)c(C(C)(C)C)c2)c1` (single isomer, unassigned) [Example 86.2, (3R)-3-(3-(((2-(1,1-Dimethylethyl)-2′-fluoro-5′-(methyloxy)-1,1′-biphenyl-4-yl)methyl)oxy)-4-fluorophenyl)pentanoic acid or (3S)-3-(3-(((2-(1,1-dimethylethyl)-2′-fluoro-5′-(methyloxy)-1,1′-biphenyl-4-yl)methyl)oxy)-4-fluorophenyl)pentanoic acid] gave a concentration giving a half-maximal response (EC50) of 1000 to 10000 nM.
As for `COc1ccc(F)c(-c2ccc(COc3cccc(C(CC(=O)O)CC(C)C)c3)cc2C(C)(C)C)c1` (single isomer, unassigned) [Example 92, (3R)-3-(3-(((2-(1,1-Dimethylethyl)-2′-fluoro-5′-(methyloxy)-1,1′-biphenyl-4-yl)methyl)oxy)phenyl)-5-methylhexanoic acid or (3S)-3-(3-(((2-(1,1-dimethylethyl)-2′-fluoro-5′-(methyloxy)-1,1′-biphenyl-4-yl)methyl)oxy)phenyl)-5-methylhexanoic acid], the figure is 1000 to 10000 nM; as for `COc1ccc(F)c(-c2ccc(COc3cccc([C@H](CC(=O)O)C4CC4)c3)cc2C2=CCCC2(C)C)c1` (single isomer, unassigned) [Example 97.1, (3R)-3-Cyclopropyl-3-(3-(((2-(5,5-dimethyl-1-cyclopenten-1-yl)-2′-fluoro-5′-(methyloxy)-1,1′-biphenyl-4-yl)methyl)oxy)phenyl)propanoic acid or (3S)-3-cyclopropyl-3-(3-(((2-(5,5-dimethyl-1-cyclopenten-1-yl)-2′-fluoro-5′-(methyloxy)-1,1′-biphenyl-4-yl)methyl)oxy)phenyl)propanoic acid], 1000 to 10000 nM.
`COc1ccc(F)c(-c2ccc(COc3cccc(C(CC(=O)O)C4CC4)c3)cc2C2CCCC2(C)C)c1` (single isomer, unassigned) [Example 97.2] registered a 50% effective concentration (EC50) of 1000 to 10000 nM.
As for `CCC(CC(=O)O)c1cccc(OCc2ccc(-c3cc(OC)ccc3F)c(C3CCCC3(C)C)c2)c1` (single isomer, unassigned) [Example 98.1], the figure is 100 to 1000 nM.
In turn, `CCC(CC(=O)O)c1cccc(OCc2ccc(-c3cc(OC)ccc3F)c(C3CCCC3(C)C)c2)c1` (single isomer, unassigned) [Example 98.2] registered a half-maximal effective concentration (EC50) of 1000 to 10000 nM.
As for `COc1ccc(F)c(-c2ccc(COc3cccc(C(CC(=O)O)C4CC4)c3F)cc2C2=CCCC2(C)C)c1` (single isomer, unassigned) [Example 99.1, (3R)-3-Cyclopropyl-3-(3-(((2-(5,5-dimethyl-1-cyclopenten-1-yl)-2′-fluoro-5′-(methyloxy)-1,1′-biphenyl-4-yl)methyl)oxy)-2-fluorophenyl)propanoic acid or (3S)-3-cyclopropyl-3-(3-(((2-(5,5-dimethyl-1-cyclopenten-1-yl)-2′-fluoro-5′-(methyloxy)-1,1′-biphenyl-4-yl)methyl)oxy)-2-fluorophenyl)propanoic acid], the figure is 1000 to 10000 nM.
Under `COc1ccc(F)c(-c2ccc(COc3cccc([C@H](CC(=O)O)C4CC4)c3F)cc2[C@H]2CCCC2(C)C)c1` (single isomer, unassigned) [Example 99.3] stands 1000 to 10000 nM; under `CCC(CC(=O)O)c1cccc(OCc2ccc(-c3cc(OC)ccc3F)c(C3CCCC3(C)C)c2)c1F` (single isomer, unassigned) [Example 100.1], 1000 to 10000 nM.
Under `CCC(CC(=O)O)c1cccc(OCc2ccc(-c3cc(OC)ccc3F)c(C3CCCC3(C)C)c2)c1F` (single isomer, unassigned) [Example 100.2] stands 100 to 1000 nM; under `CCC(CC(=O)O)c1cc(F)cc(OCc2ccc(-c3cc(OC)ccc3F)c(C3=CCCC3(C)C)c2)c1F` (single isomer, unassigned) [Example 101.1, (3S)-3-(3-(((2-(5,5-Dimethyl-1-cyclopenten-1-yl)-2′-fluoro-5′-(methyloxy)-1,1′-biphenyl-4-yl)methyl)oxy)-2,5-difluorophenyl)pentanoic acid or (3R)-3-(3-(((2-(5,5-dimethyl-1-cyclopenten-1-yl)-2′-fluoro-5′-(methyloxy)-1,1′-biphenyl-4-yl)methyl)oxy)-2,5-difluorophenyl)pentanoic acid], 1000 to 10000 nM.
